Data set [1] in a line: physchem. In kind it is physicochemical. Conditions: pH 2, aqueous buffer.
Details of data set [2]: species or system human. Conditions: in vivo.
Data set [3] can be described thus: Phase-1 first-in-human trial, pharmacokinetics. Format: in vivo.
Text: A randomized, double-blind, placebo controlled trial was designed to evaluate the safety/tolerability, pharmacokinetics and antiviral activity of single (in Part A) and multiple (in Part B) doses of Compound (1) (oleic acid solution, above) in subjects chronically infected with HCV genotype 1 (GT-1) without decompensated cirrhosis.
In completed Part A, five successive cohorts of 6 subjects were randomized (5:1) to receive single ascending doses of Compound 1 (40, 120, 240, 240-with food, or 480 mg) or placebo. In ongoing Part B, four successive cohorts of 12 subjects are randomized (10:2) to receive multiple ascending doses of Compound 1 (40 mg BID, 120 mg BID, 240 mg QD, 240 mg BID) or placebo, over 8 days.
Data set [4] relates to HCV genotype 1 (Con-1/lucneo) replicon. In kind it is cell-based. As to conditions: 3 days, absence of HSA. On the procedure: HCV genotype 1 (Con-1/lucneo) and 1a (H77/neo) replicon cells were incubated with serial dilutions of compound (1) 2′C-methyl adenosine (2′CMeA) or IFNα for 3 days in the absence or presence of 40 mg/mL human serum albumin (HSA).

Converted amounts (≈) assume the structure as drawn.

The solubility is the concentration that dissolves in the medium under given conditions. Low values mean little dissolved substance, high ones much dissolved substance. `Fc1ccccc1-c1nc2ccn(Cc3ccc(-c4ccc(C(F)(F)F)cc4C(F)(F)F)nn3)cc-2n1` [Compound 1, 5-((6-(2,4-Bis(trifluoromethyl)phenyl]pyridazin-3-yl)methyl)-2-(2-fluorophenyl)-5H-imidazo[4,5-c]pyridine]: the concentration in solution in data set [1] (solubility) was 458 µg/mL (≈ 885 µM). Further, the “tolerability of single doses” value in data set [2] is listed as “well tolerated, with no serious or treatment-limiting adverse events (AEs) reported”. Moreover, the “mean concentration 24 hours after dosing relative to protein binding adjusted in vitro HCV GT-1 replicon EC50” value in data set [3] (240 mg fasted single dose) was roughly 7 fold. In data set [3] (single dose 240 mg with food vs fasted), the “increase in systemic exposure with a high fat meal” value is “approximately 2 fold”.
As to IFN-α, the “EC50 HCV 1-lucneo” value in data set [4] is 2 IU/mL.

Values taken from patent publication US8106054B2, “Crystalline pyridazine compound” (priority 2007, dated 2012).
